The values below come from publication PMC6715681, “A high-throughput screen to identify novel synthetic lethal compounds for the treatment of E-cadherin-deficient cells” (Scientific Reports, 2019).

The subject of experiment [1] is MCF10A WT cells. Nature of the experiment: xCELLigence real-time impedance assay (cell proliferation index). In kind it is cell-based, human. The protocol: (§1) The xCELLigence real-time system quantifies electrical impedance as a measurement of cell viability which is expressed as the cell proliferation index. […] This was due to drug effects and briefly removing plates from the incubator for the addition of compounds and controls. Despite a slower adhesion time for MCF10A CDH1^−/−, consistent with our previous finding[3] the DMSO control treated cells had similar slopes of 0.17 and 0.15 for MCF10A WT and MCF10A CDH1^−/−, respectively.
(§2) Figure 10 Real-time xCELLigence data for lead compounds 8 and 11. (A) Timeline for the real-time cellular assay. Plates were seeded 4,000 cells/well as described in the Methods. (B,C) Data shown is a representative experiment of two biological replicates, performed in 96-well xCELLigence E-plates. Error bars are SD. Measurements were taken every 15 minutes. The cell proliferation index was calculated using the RTCA software. (B) Cells were treated with SLEC-8. (C) Cells were treated with SLEC-11.
(§3) Cells were seeded into each well of Corning’s black walled, clear bottom 96-well plates with a total volume of 100 μL per well. Edge wells were excluded. Both isogenic cell lines were seeded into the same plate to mitigate plate-to-plate variation. Plates for real-time analysis were transferred to the xCELLigence platform (ACEA Biosciences, USA) or the IncuCyte FLR imaging system (Essen BioScience, USA) as previously described.

The test system of experiment [2] is MCF10A CDH1^−/− cells. Described as above. Format: cell-based, human. As to conditions: for SL differential between the two cell lines (in words): xCELLigence real-time assay, SLEC-8 at 10 μM, SLEC-11 at 20 μM. The protocol: as §1, §2, §3
Experiment [3] deals with MCF10A CDH1^−/− cells. Kind of experiment: 11-point dose-response screen, high-content imaging (HCI) of Hoechst 33342 nuclei. In kind it is cell-based, human. As to conditions: 11-point screen; for EC50: Homo sapiens, MCF-10A, HCI. As to the method: (§4) The 11-point dose-response screen evaluated a concentration range from 0.02 µM to 20 µM for both isogenic cell lines in duplicate biological replicates (Fig. 4). One limitation to metabolism-based cellular assays is that a change in read out (fluorescence, luminescence or absorbance) may not necessarily be caused by cell death and could instead result from a cessation of proliferation due to senescence or inhibited mitochondrial respiration. For this reason, a direct measurement of cell counts using cellular imaging of nuclei stained with Hoechst 33342 was also included at the 11-point screening stage. For the CTB 11-point screen all plates had acceptable Z’ values above 0.4, with the second biological replicate having 70% above 0.6 (Fig. 4A). The Z’ values for the high-content imaging (HCI) 11-point screen plates were above 0.4 for MCF10A WT, except one plate from biological replicate two with 0.396 (Fig. 4B). However, for MCF10A CDH1^−/− HCI data, only four plates were above a Z’ of 0.4 and the mean Z’ was 0.32 compared to a mean of 0.51 for MCF10A WT. A further quality metric known as the strictly standardized mean difference (SSMD)[40] is a less conservative approach for QC and a cut-off of >3 is generally used. The mean SSMD value was 7.04 for MCF10A WT and 5.27 for MCF10A CDH1^−/− plates and indicates the MCF10A CDH1^−/− HCI data was acceptable[41]. There was a good correlation between the top hits from the HCI and CTB 11-point screening with an overlap of 31 / 40 for the top 40 compounds selected from the eventual hit selection strategies.
(§5) A direct measurement of cell counts using cellular imaging of nuclei was also included at the 11-point screening stage. Plates were fixed, washed and stained using an ELx405 Select deep well washer (BioTek). Media was first aspirated leaving 10 μL/well, then 4% w/v PFA was added and plates left for 15 minutes at RT. Plates were then washed twice with PBS-T, before aspirating all permeabilization buffer and adding Hoechst 33342 (1 μg/mL final) in PBS. Plates were then stored in the dark at 4 °C, until being imaged on a BD Pathway 855. Two 10x images per well were taken and cell counts enumerated using CellProfiler[48].

In experiment [4] the test system is MCF10A WT cells. Kind of experiment: Medium-throughput validation in 96-well plates, Hoechst-33342 nuclei counts (CellProfiler). Particulars: Homo sapiens, MCF-10A, 96-well validation, at least five concentration points. Format: cell-based. The protocol:
as §3
(§6) Seventy-two hours post seeding (or 48 hours post compound addition), plates were assayed for cell viability using a one-step cocktail of PFA (0.25% v/v), saponin (0.075% w/v) and Hoechst 33342 (1 μg/ml final) as described previously. CellProfiler was used to enumerate cell counts as previously described.

The subject of experiment [5] is MCF10A CDH1^−/− cells. Described as above. In kind it is cell-based, human. Particulars: for EC50 ratio (MCF10A WT/MCF10A CDH1^−/−) / EC50: 96-well validation; for EC50: Hoechst nuclei counts, at least five concentration points; for Differential at 5 µM (%): 48 h post compound addition. The protocol: as §3, §6
Experiment [6] has as its system MCF10A WT cells. Nature of the experiment: IncuCyte real-time live cell imaging (cell confluence). In kind it is cell-based, human. Particulars: 2.5–20 μM, 48 hours. The protocol:
(§7) Real-time viability assays were performed on the two lead compounds SLEC-8 and SLEC-11 using the two isogenic MCF10A cell lines. The IncuCyte and xCELLigence assay systems quantify cell growth over the drugging period in real-time, allowing for the assessment of even subtle growth inhibitory effects following compound treatment. The IncuCyte was used in combination with an end-point assay (nuclei counting) to give both live cell imaging and normalized cell counts for each plate.
(§8) Figure 9 IncuCyte validation data for lead compounds 8 and 11. (A) Timeline for the combined live cell imaging and end-point viability assays. Plates were seeded 4,000 cells/well as described in the Methods. (B,C) One hour following compound addition, plates were transferred to the IncuCyte. Three 4x images per well were taken every two hours for 48 hours. An EC80 dose of doxorubicin was used (Supplementary Table 1). Data shown is a representative experiment of three biological replicates. Error bars are SD. The cell confluence v1.5 was calculated using the IncuCyte software. (B) Live cell imaging for SLEC-8. (C) Live cell imaging for SLEC-11. Graphs were created in Excel.
(§9) To calculate growth rates, a trendline was fitted to the linear growth phase of each cell line. The greatest SL difference in the slope of the trendline for SLEC-8 as at 10 μM treatment with 2.0 fold difference for MCF10A CDH1^−/− cells, compared to MCF10A WT. For SLEC-11 the greatest SL difference was at 20 μM, with a 4.0 fold difference in the slope of the trendline for MCF10A CDH1^−/− cells compared to MCF10A WT (data not shown).
as §3

Experiment [7] has as its system MCF10A CDH1^−/− cells. The experiment is described as above. Format: cell-based, human. Particulars: for Greatest SL difference in the slope of the growth trendline, MCF10A CDH1^−/− compared to MCF10A WT: linear growth phase; for Growth rate effect in MCF10A CDH1^−/− cells (in words): all concentrations between 2.5–20 μM, 48 hours. The protocol: as §7, §8, §9, §3

For experiment [8], the system named is MCF10A WT cells. Nature of the experiment: 11-point dose-response screen, high-content imaging (HCI) of Hoechst 33342 nuclei. In kind it is cell-based. Particulars: Homo sapiens, MCF-10A, 11-point screen. As to the method:
as §4, §5

Setting [9] is: normalized cell counts MCF10A WT – MCF10A CDH1^−/−, 96-well.

Marks after values point to notes of the source that are not given here.

With `COc1ccc2nc(C)cc(NCc3ccc(F)cc3)c2c1` [SLEC-11, N-(4-Fluorobenzyl)-6-methoxy-2-methylquinolin-4-amine], the “Difference in cell proliferation index to DMSO in MCF10A WT cells (in words)” value with MCF10A WT cells [1] (20 μM, 62 hours post seeding) is given as “no difference”. Further, the “SL differential between the two cell lines (in words)” value in the experiment with MCF10A CDH1^−/− cells [2] is “significant SL differential”. Further, the “Difference in cell proliferation index between compound and DMSO (maximum)” value with MCF10A CDH1^−/− cells [2] (xCELLigence, 20 μM, 62 hours post seeding) was determined as 7.9 fold. In addition, the 50% effective concentration (EC50) with MCF10A CDH1^−/− cells [3] is 7.34 µM; in the experiment on MCF10A WT cells [4] it was 10.8 µM; with MCF10A CDH1^−/− cells [5], 7.02 µM; in the experiment with MCF10A CDH1^−/− cells [5] (Homo sapiens, MCF-10A), 7 µM; with MCF10A WT cells [8], 14.6 µM. Further, the “EC50 ratio (MCF10A WT/MCF10A CDH1^−/−)” value in the experiment on MCF10A CDH1^−/− cells [5] is recorded as 1.53. Moreover, the “Differential at 5 µM (%)” value was 20.7% in the experiment with MCF10A CDH1^−/− cells [5] (setting [9]) and 20.74* % in the experiment on MCF10A CDH1^−/− cells [5] (normalized cell counts MCF10A WT – MCF10A CDH1^−/−, 96-well, listed as 11). Further, the “Growth reduction in MCF10A WT cells (in words)” value with MCF10A WT cells [6] is recorded as “only observed at the higher concentrations”. For the same molecule, in the experiment with MCF10A CDH1^−/− cells [7] (20 μM treatment), the “Greatest SL difference in the slope of the growth trendline, MCF10A CDH1^−/− compared to MCF10A WT” value came to 4.0 fold. The “Growth rate effect in MCF10A CDH1^−/− cells (in words)” value with MCF10A CDH1^−/− cells [7] is “dose-dependent growth rate reduction”.

As for `CC(O)CNCc1ccc(OCc2ccc(Cl)cc2Cl)cc1` (stereo not drawn) [SLEC-8], the “Recovery of MCF10A WT cells (in words)” value in the experiment with MCF10A WT cells [1] (10 μM, by 60 hours post seeding) was “able to fully recover”. The “SL differential between the two cell lines (in words)” value with MCF10A CDH1^−/− cells [2] is “significant SL differential”. Further, the “Decrease in cell proliferation index compared to DMSO” value in the experiment with MCF10A CDH1^−/− cells [2] (xCELLigence, 10 μM, 60 hours post seeding) was found to be 2.7 fold. Also, in the experiment with MCF10A CDH1^−/− cells [3] (value corresponds to the HCI EC50s of Fig. 5), the “EC50 ratio between MCF10A WT and MCF10A CDH1^−/− cells” value stood at 5.03 fold change. The EC50 in the experiment on MCF10A CDH1^−/− cells [3] is 2.02 µM; in the experiment with MCF10A WT cells [4], 12.4 µM; in the experiment with MCF10A CDH1^−/− cells [5], 9.07 µM; with MCF10A CDH1^−/− cells [5] (Homo sapiens, MCF-10A) it was 9.1 µM; with MCF10A WT cells [8] it was 10.2 µM. Moreover, the “EC50 ratio (MCF10A WT/MCF10A CDH1^−/−)” value in the experiment with MCF10A CDH1^−/− cells [5] worked out at 1.36. The “SL differential at 2.5 μM” value in the experiment with MCF10A CDH1^−/− cells [5] (normalized cell counts MCF10A WT – MCF10A CDH1^−/−, 96-well, 2.5 μM) amounted to 22.0%. The “Differential at 5 µM (%)” value in the experiment with MCF10A CDH1^−/− cells [5] (setting [9]) is given as 22.8%; in the experiment on MCF10A CDH1^−/− cells [5] (normalized cell counts MCF10A WT – MCF10A CDH1^−/−, 96-well, listed as 8), 22.79* %. For the same molecule, in the experiment on MCF10A WT cells [6], the “Growth reduction in MCF10A WT cells (in words)” value is on record as “only observed at the higher concentrations”. Besides, in the experiment on MCF10A CDH1^−/− cells [7] (10 μM treatment), the “Greatest SL difference in the slope of the growth trendline, MCF10A CDH1^−/− compared to MCF10A WT” value is 2.0 fold. For the same molecule, the “Growth rate effect in MCF10A CDH1^−/− cells (in words)” value in the experiment on MCF10A CDH1^−/− cells [7] is “dose-dependent growth rate reduction”.
